The test system of data set [1] is Staphylococcus 242 (Methicillin-resistant strain). Description: Protection ability against systemic infection. It is filed as in vivo. As to conditions: iv, 168 h, ICR mice, intraperitoneal infection, compound intravenously 1 hour after infection, survival at 1 week. Here is the method: (§1) Protection ability against systemic infection was determined as follows. An aqueous suspension of test bacteria was intraperitoneally injected into groups of 10 four week old ICR mice. One hour after the infection, test compounds were intravenously administered. The number of surviving mice was counted 1 week after injection to determine the dose at which 50% of the test animals were alive (ED50 :mg/kg).
*Methicillin-resistant strain

Data set [2] concerns Escherichia coli 67. The experiment in a line: Antibacterial activity in vitro, agar plate dilution method (MIC). It is filed as cell-based. To be noted: 10^6 cells/ml, Mueller Hinton agar, 37° C., 20 hours. Here is the method: (§2) Antibacterial activity in vitro was determined in accordance with the agar plate dilution method. A platinum loop each of test bacteria (10^6 cells/ml), cultured in Mueller Hinton broth, was inoculated on Mueller Hinton agar plates which contained test compounds at various concentrations. After cultivating at 37° C. for 20 hours, the minimum inhibitory concentration (MIC μg/ml) was determined.

The test system of data set [3] is Klebsiella pneumoniae IF03317. The description is as above. The data set is classed as cell-based. As to conditions: 10^6 cells/ml, Mueller Hinton agar, 37° C., 20 hours. Here is the method:
as §2

Another data set deals with Proteus morganii IF03848. The data set is described as above. To be noted: Morganella morganii, 10^6 cells/ml, Mueller Hinton agar, 37° C., 20 hours. It is filed as cell-based. On the procedure: as §2
Data set [4] deals with Pseudomonas aeruginosa IF03445. The data set is described as above. The data set is classed as cell-based. To be noted: 10^6 cells/ml, Mueller Hinton agar, 37° C., 20 hours. On the procedure: as §2
For data set [5], the system named is Serratia marcescens IF03759. Described as above. It is filed as cell-based. To be noted: 10^6 cells/ml, Mueller Hinton agar, 37° C., 20 hours. On the procedure: as §2
Data set [6] has as its system Staphylococcus aureus Smith. The data set is described as above. It is filed as cell-based. As to conditions: 10^6 cells/ml, Mueller Hinton agar, 37° C., 20 hours. On the procedure:
as §2

Data set [7] relates to Escherichia coli 67. The experiment in a line: Protection ability against systemic infection. It is filed as in vivo. To be noted: Escherichia coli, 67, iv, 168 h; ICR mice, intraperitoneal infection, compound intravenously 1 hour after infection, survival at 1 week. On the procedure:
as §1

The test system of data set [8] is Klebsiella pneumoniae IF03317. The experiment in a line: Protection ability against systemic infection. As to conditions: IF03317, iv, 168 h, ICR mice, intraperitoneal infection, compound intravenously 1 hour after infection, survival at 1 week. The data set is classed as in vivo. Here is the method:
as §1

The subject of data set [9] is Pseudomonas aeruginosa IF03445. The experiment in a line: Protection ability against systemic infection. It is filed as in vivo. To be noted: IF03445, iv, 168 h, ICR mice, intraperitoneal infection, compound intravenously 1 hour after infection, survival at 1 week. On the procedure: as §1
Data set [10] can be described thus: LD50 determined in accordance with the Probit method. As to conditions: in vivo, iv. On the procedure:
Next, LD50 of representative examples of the compounds of the present invention is shown in Table 3 wherein LD50 was determined in accordance with the Probit method.

Values after ≈ are worked out from the molar mass of the structure shown.

By ED50 is commonly meant the dose that gives a 50% effect, or the effect in half of the subjects. Low readings indicate greater potency, high ones weaker potency. What is called MIC is the lowest concentration found to suppress growth. What is called LD50 is the dose expected to kill half of the subjects tested. Read a low LD50 as greater toxicity.

For `Cc1nnc(SCC2=C(C(=O)O)N3C(=O)[C@@H](NC(=O)Cn4cnnn4)[C@H]3SC2)s1` [CEZ, reference compound], in data set [1], the median effective dose (ED50) worked out at 74 mg/kg.
Take `CO/N=C(\C(=O)N[C@@H]1C(=O)N2C(C(=O)O)=C(CSc3cc(C)nc4ncnn34)CS[C@H]12)c1csc(N)n1` [Compound 1, (6R,7R)-7-[2-(2-amino-4-thiazolyl)-2-(Z-methoxyimino)acetamido]-3-[(5-methyl-s-triazolo[1,5-a]pyrimidin-7-yl)thiomethyl]-8-oxo-5-thia-1-azabicyclo[4.2.0] oct-2-ene-2-carboxylic acid]: the MIC was less than 0.05 µg/mL in the data set with Escherichia coli 67 [2]; less than 0.05 µg/mL in data set [3]; 0.78 µg/mL (≈ 1.39 µM) in the data set with Proteus morganii IF03848; 50 µg/mL (≈ 89 µM) in data set [4]; 0.2 µg/mL (≈ 0.356 µM) in [5]; 1.57 µg/mL (≈ 2.8 µM) in [6]. Besides, the ED50 was 0.7 mg/kg with Escherichia coli 67 [7], 0.1 mg/kg in data set [8] and 780 mg/kg in data set [9]. Also, the LD50 in data set [10] was more than 1000 mg/kg.
On to `CO/N=C(\C(=O)N[C@@H]1C(=O)N2C(C(=O)O)=C(CSc3cc(C)nc4nc(C(=O)O)nn34)CS[C@H]12)c1csc(N)n1` [Compound 2, (6R,7R)-7-[2-(2-amino-4-thiazolyl)-2-(Z-methoxyimino)acetamido]-3-[(2-carboxy-5-methyl-s-triazolo[1,5-a]pyrimidin-7-yl)thiomethyl]-8-oxo-5-thia-1-azabicyclo[4.2.0]oct-2-ene-2-carboxylic acid], for which the minimal inhibitory concentration (MIC) was less than 0.05 µg/mL against Escherichia coli 67 [2]; less than 0.05 µg/mL in [3]; 0.2 µg/mL (≈ 0.33 µM) in the data set with Proteus morganii IF03848; 12.5 µg/mL (≈ 20.6 µM) in data set [4]; less than 0.05 µg/mL in data set [5]; 1.57 µg/mL (≈ 2.59 µM) in data set [6]. For the same molecule, the ED50 worked out at 0.8 mg/kg with Escherichia coli 67 [7], 0.1 mg/kg in data set [8] and 360 mg/kg in data set [9]. In addition, in data set [10], the median lethal dose (LD50) is more than 1000 mg/kg.
In the case of `Cc1cc(SCC2=C(C(=O)O)N3C(=O)[C@@H](NC(=O)/C(=N\O)c4csc(N)n4)[C@H]3SC2)n2nc(C(=O)O)nc2n1` [Compound 8, (6R,7R)-7-[2-(2-amino-4-thiazolyl)-2-(Z-hydroxyimino)acetamido]3-[(2-carboxy-5-methyl-s-triazolo[1,5-a]pyrimidin-7-yl)thiomethyl]-8-oxo-5-thia-1-azabicyclo[4.2.0]oct-2-ene-2-carboxylic acid], the minimum inhibitory concentration (MIC) against Escherichia coli 67 [2] is 0.2 µg/mL (≈ 0.338 µM); in data set [3], less than 0.05 µg/mL; in the data set on Proteus morganii IF03848, 0.39 µg/mL (≈ 0.659 µM); in [4] it was more than 100 µg/mL; in data set [5], 0.2 µg/mL (≈ 0.338 µM); in [6] it was 0.78 µg/mL (≈ 1.32 µM). For the same molecule, the results for the ED50 in [8] and in data set [1] were 7.68 mg/kg and 3.55 mg/kg, respectively. The molecule further returned a 50% lethal dose (LD50) in data set [10] of more than 1000 mg/kg.
Regarding `Cc1cc(SCC2=C(C(=O)O)N3C(=O)[C@@H](NC(=O)/C(=N\OC(=O)c4ccco4)c4csc(N)n4)[C@H]3SC2)n2nc(C(=O)O)nc2n1` [Compound 9, (6R,7R)-7-[2-(2-amino-4-thiazolyl)-2-[Z-(2-furancarbonyl)oxyimino]acetamido]-3-[(2-carboxy-5-methyl-s-triazolo[1,5-a]pyrimidin-7-yl)thiomethyl]-8-oxo-5-thia-1-azabicyclo[4.2.0]oct-2-ene-2-carboxylic acid], the MIC in the data set on Escherichia coli 67 [2] is less than 0.05 µg/mL; in [3], less than 0.05 µg/mL; against Proteus morganii IF03848 it was 0.2 µg/mL (≈ 0.292 µM); in data set [4], 100 µg/mL (≈ 146 µM); in [5] it was less than 0.05 µg/mL; in [6], 0.39 µg/mL (≈ 0.569 µM). The ED50 in data set [8] is 7.68 mg/kg; in data set [1] it was 2.11 mg/kg. This molecule also yielded a 50% lethal dose (LD50) in data set [10] of more than 1000 mg/kg.
`Cc1cc(SCC2=C(C(=O)O)N3C(=O)[C@@H](NC(=O)/C(=N\OC(=O)c4cccs4)c4csc(N)n4)[C@H]3SC2)n2nc(C(=O)O)nc2n1` [Compound 10, (6R,7R)-7-[2-(2-amino-4-thiazolyl)-2-[Z-(2-thiophenecarbonyl)oxyimino]acetamido]-3-[(2-carboxy-5-methyl-s-triazolo[1,5-a]pyrimidin-7-yl)-thiomethyl]-8-oxo-5-thia-1-azabicyclo[4.2.0]-oct-2-ene-2-carboxylic acid]: the MIC in the data set with Escherichia coli 67 [2] was 0.1 µg/mL (≈ 0.143 µM); in data set [3] it was less than 0.05 µg/mL; in the data set on Proteus morganii IF03848, 0.39 µg/mL (≈ 0.556 µM); in data set [4], 50 µg/mL (≈ 71.3 µM); in data set [5], 0.1 µg/mL (≈ 0.143 µM); in data set [6], 0.39 µg/mL (≈ 0.556 µM). In data set [1], the 50% effective dose (ED50) came out at 8.01 mg/kg. This molecule also came in with an LD50 in data set [10] of more than 1000 mg/kg.
As to `CO/N=C(\C(=O)N[C@@H]1C(=O)N2C(C(=O)O)=C(CSc3nc(N)cc4ncnn34)CS[C@H]12)c1csc(N)n1` [Compound 22, (6R,7R)-7-[2-(2-amino-4-thiazolyl)-2-(Z-methoxyimino)acetamido]-3-[(7-amino-s-triazolo[1,5-c]pyrimidin-5-yl)thiomethyl]-8 oxo-5-thia-1-azabicyclo[4.2.0]oct-2-ene-2-carboxylic acid], the minimal inhibitory concentration (MIC) with Escherichia coli 67 [2] is 0.1 µg/mL (≈ 0.178 µM); in data set [3], less than 0.05 µg/mL; against Proteus morganii IF03848 it was 0.78 µg/mL (≈ 1.39 µM); in [4] it was 50 µg/mL (≈ 88.9 µM); in data set [5], 0.39 µg/mL (≈ 0.693 µM); in [6] it was 1.57 µg/mL (≈ 2.79 µM).
For the molecule `CO/N=C(\C(=O)N[C@@H]1C(=O)N2C(C(=O)O)=C(CSc3nnc4cc(C)nc(O)n34)CS[C@H]12)c1csc(N)n1` [Compound 23, (6R,7R)-7-[2-(2-amino-4-thiazolyl)-2-(Z-methoxyimino)acetamido]-3 [(5-hydroxy-7-methyl-s-triazolo[4,3-c]pyrimidin-3-yl)thiomethyl]-8-oxo-5-thia-1-azabicyclo[4.2.0]oct-2-ene-2-carboxylic acid], the MIC is 0.1 µg/mL (≈ 0.173 µM) in the data set with Escherichia coli 67 [2]; less than 0.05 µg/mL in [3]; 0.78 µg/mL (≈ 1.35 µM) in the data set on Proteus morganii IF03848; 50 µg/mL (≈ 86.6 µM) in data set [4]; 0.39 µg/mL (≈ 0.675 µM) in data set [5]; 3.13 µg/mL (≈ 5.42 µM) in data set [6].
`CO/N=C(\C(=O)N[C@@H]1C(=O)N2C(C(=O)O)=C(CSc3nn4c(=O)cc(C)nc4s3)CS[C@H]12)c1csc(N)n1` [Compound 24, (6R,7R)-7-[2-(2-amino-4-thiazolyl)-2-(Z-methoxyimino)acetamido]-3-[(7-methyl-5oxo-5H-1,3,4-thiadiazolo[3,2-a]pyrimidin-2-yl)thiomethyl]-8-oxo-5-thia-1-azabicyclo[4.2.0]oct-2-ene-2-carboxylic acid]: the minimum inhibitory concentration (MIC) against Escherichia coli 67 [2] is less than 0.05 µg/mL; in data set [3], less than 0.05 µg/mL; against Proteus morganii IF03848, 0.39 µg/mL (≈ 0.656 µM); in data set [4] it was 50 µg/mL (≈ 84.1 µM); in [5] it was 0.2 µg/mL (≈ 0.336 µM); in data set [6], 0.78 µg/mL (≈ 1.31 µM).
For the molecule `Cc1cc(SCC2=C(C(=O)O)N3C(=O)[C@@H](NC(=O)/C(=N\OC(=O)c4ccccc4)c4csc(N)n4)[C@H]3SC2)n2nc(C(=O)O)nc2n1` [Compound 25, (6R,7R)-7-[2-(2-amino-4-thiazolyl)-2-(Z-benzoyloxyimino)acetamido]-3 [(2-carboxy-5-methyl-s-triazolo[1,5-a]pyrimidin-7-yl)thiomethyl]8-oxo-5-thia-1-azabicyclo[4.2.0]oct-2-ene 2-carboxylic acid], the MIC in the data set with Escherichia coli 67 [2] is 0.1 µg/mL (≈ 0.144 µM); in [3] it was less than 0.05 µg/mL; in the data set with Proteus morganii IF03848, 0.39 µg/mL (≈ 0.561 µM); in data set [4] it was 50 µg/mL (≈ 71.9 µM); in data set [5] it was 0.1 µg/mL (≈ 0.144 µM); in data set [6] it was 0.39 µg/mL (≈ 0.561 µM).
On to `Cc1cc(SCC2=C(C(=O)O)N3C(=O)[C@@H](NC(=O)/C(=N\OC(=O)c4ccc[nH]4)c4csc(N)n4)[C@H]3SC2)n2nc(C(=O)O)nc2n1` [Compound 26, (6R,7R)-7-[2-(2-amino-4-thiazolyl)-2-[Z-(2-pyrrolecarbonyl)oxyimino]acetamido]-3-[(2-carboxy-5-methyl-s-triazolo[1,5-a]pyrimidin-7-yl)thiomethyl]-8-oxo-5-thia-1-azabicyclo[4.2.0]oct-2-ene-2-carboxylic acid], for which the MIC is 0.2 µg/mL (≈ 0.292 µM) against Escherichia coli 67 [2]; less than 0.05 µg/mL in data set [3]; 0.78 µg/mL (≈ 1.14 µM) in the data set on Proteus morganii IF03848; 25 µg/mL (≈ 36.5 µM) in [4]; 0.2 µg/mL (≈ 0.292 µM) in data set [5]; 1.57 µg/mL (≈ 2.29 µM) in data set [6].
On to `CC(=O)Oc1ccc(C(=O)O/N=C(\C(=O)N[C@@H]2C(=O)N3C(C(=O)O)=C(CSc4cc(C)nc5nc(C(=O)O)nn45)CS[C@H]23)c2csc(N)n2)cc1OC(C)=O` [Compound 27, (6R,7R)-7-[2-(2-amino-4-thiazolyl)-2-[Z-(3,4-diacetoxybenzoyl)oxyimino]acetamido]-3-[(2-carboxy-5-methyl-s-triazolo[1,5-a]pyrimidin-7-yl)thiomethyl]-8-oxo-5-thia-1-azabicyclo[4.2.0]oct-2-ene-2-carboxylic acid], for which the MIC in the data set on Escherichia coli 67 [2] is less than 0.05 µg/mL; in data set [3], less than 0.05 µg/mL; in the data set on Proteus morganii IF03848, 0.2 µg/mL (≈ 0.246 µM); in data set [4] it was 0.39 µg/mL (≈ 0.48 µM); in [5], less than 0.05 µg/mL; in data set [6], 1.57 µg/mL (≈ 1.93 µM).

For the origin of these results see patent US5064953A, “Intermediates cephalosporin derivatives” (Mochida Pharmaceutical Co., Ltd., priority 1983, dated 1991).
